According to PubChem BioAssay (NCI):
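These data come from cells grown in 96-well plates and exposed to compound for 48 hours at five concentrations. At the GI50, growth is halved. Definition used: TGI = concentration required for complete inhibition of growth.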

Tests used:
Assay in all cases: DTP human tumour cell line panel, 48 h
786-0 renal = system: 786-0 renal
KM12 colon = system: KM12 colon
DU-145 prostate = system: DU-145 prostate
SN12C renal = system: SN12C renal
OVCAR-5 ovarian = system: OVCAR-5 ovarian
HCC-2998 colon = system: HCC-2998 colon
MALME-3M melanoma = system: MALME-3M melanoma
UO-31 renal = system: UO-31 renal
MCF7 breast = system: MCF7 breast
NCI-H226 lung = system: NCI-H226 lung
SF-268 CNS = system: SF-268 CNS
M14 melanoma = system: M14 melanoma
U251 CNS = system: U251 CNS
UACC-62 melanoma = system: UACC-62 melanoma
HT29 colon = system: HT29 colon
K-562 leukemia = system: K-562 leukemia
MDA-MB-231 breast = system: MDA-MB-231 breast
OVCAR-8 ovarian = system: OVCAR-8 ovarian
SK-MEL-2 melanoma = system: SK-MEL-2 melanoma
EKVX NSCLC = system: EKVX NSCLC
OVCAR-3 ovarian = system: OVCAR-3 ovarian
A498 renal = system: A498 renal
T-47D breast = system: T-47D breast
SF-295 CNS = system: SF-295 CNS
A549 NSCLC = system: A549 NSCLC
NCI-H522 lung = system: NCI-H522 lung
RPMI-8226 leukemia = system: RPMI-8226 leukemia
HOP-62 NSCLC = system: HOP-62 NSCLC
NCI/ADR-RES ovarian = system: NCI/ADR-RES ovarian
TK-10 renal = system: TK-10 renal
HL-60(TB) leukemia = system: HL-60(TB) leukemia
CCRF-CEM leukemia = system: CCRF-CEM leukemia
MDA-MB-435 = system: MDA-MB-435
PC-3 prostate = system: PC-3 prostate
CAKI-1 renal = system: CAKI-1 renal
SK-MEL-5 melanoma = system: SK-MEL-5 melanoma
HCT-15 colon = system: HCT-15 colon
SNB-19 CNS = system: SNB-19 CNS
HCT-116 colon = system: HCT-116 colon
SR leukemia = system: SR leukemia
COLO 205 colon = system: COLO 205 colon
HS 578T breast = system: HS 578T breast
BT-549 breast = system: BT-549 breast
LOX IMVI melanoma = system: LOX IMVI melanoma
SW-620 colon = system: SW-620 colon
SK-MEL-28 melanoma = system: SK-MEL-28 melanoma
ACHN renal = system: ACHN renal
NCI-H460 lung = system: NCI-H460 lung
UACC-257 melanoma = system: UACC-257 melanoma
NCI-H23 lung = system: NCI-H23 lung
IGROV1 ovarian = system: IGROV1 ovarian
SF-539 CNS = system: SF-539 CNS
HOP-92 NSCLC = system: HOP-92 NSCLC
RXF 393 renal = system: RXF 393 renal
SK-OV-3 ovarian = system: SK-OV-3 ovarian
MOLT-4 leukemia = system: MOLT-4 leukemia
SNB-75 CNS = system: SNB-75 CNS
OVCAR-4 ovarian = system: OVCAR-4 ovarian

SMILES: CCOC(=O)C(CO)c1nc2c([nH]c1=O)c(=O)n(C)c(=O)n2C (centres undefined)
- TGI (786-0 renal): > 100 µM
- TGI (KM12 colon): > 100 µM
- TGI (DU-145 prostate): > 100 µM
- TGI (SN12C renal): > 100 µM
- TGI (OVCAR-5 ovarian): > 100 µM
- TGI (HCC-2998 colon): > 100 µM
- TGI (MALME-3M melanoma): > 100 µM
- TGI (UO-31 renal): > 100 µM
- TGI (MCF7 breast): > 100 µM
- TGI (NCI-H226 lung): > 100 µM
- TGI (SF-268 CNS): > 100 µM
- TGI (M14 melanoma): > 100 µM
- TGI (U251 CNS): > 100 µM
- TGI (UACC-62 melanoma): > 100 µM
- TGI (HT29 colon): > 100 µM
- TGI (K-562 leukemia): > 100 µM
- TGI (MDA-MB-231 breast): > 100 µM
- TGI (OVCAR-8 ovarian): > 100 µM
- TGI (SK-MEL-2 melanoma): > 100 µM
- TGI (EKVX NSCLC): > 100 µM
- TGI (OVCAR-3 ovarian): > 100 µM
- TGI (A498 renal): > 100 µM
- TGI (T-47D breast): 60.8 µM
- TGI (SF-295 CNS): > 100 µM
- TGI (A549 NSCLC): > 100 µM
- TGI (NCI-H522 lung): > 100 µM
- TGI (RPMI-8226 leukemia): > 100 µM
- TGI (HOP-62 NSCLC): > 100 µM
- TGI (NCI/ADR-RES ovarian): > 100 µM
- TGI (TK-10 renal): > 100 µM
- TGI (HL-60(TB) leukemia): > 100 µM
- TGI (CCRF-CEM leukemia): > 100 µM
- TGI (MDA-MB-435): > 100 µM
- TGI (PC-3 prostate): > 100 µM
- TGI (CAKI-1 renal): > 100 µM
- TGI (SK-MEL-5 melanoma): > 100 µM
- TGI (HCT-15 colon): > 100 µM
- TGI (SNB-19 CNS): > 100 µM
- TGI (HCT-116 colon): > 100 µM
- TGI (SR leukemia): > 100 µM
- TGI (COLO 205 colon): > 100 µM
- TGI (HS 578T breast): > 100 µM
- TGI (BT-549 breast): > 100 µM
- TGI (LOX IMVI melanoma): > 100 µM
- TGI (SW-620 colon): > 100 µM
- TGI (SK-MEL-28 melanoma): > 100 µM
- TGI (ACHN renal): > 100 µM
- TGI (NCI-H460 lung): > 100 µM
- TGI (UACC-257 melanoma): > 100 µM
- TGI (NCI-H23 lung): > 100 µM
- TGI (IGROV1 ovarian): > 100 µM
- TGI (SF-539 CNS): > 100 µM

SMILES: CC1=C[C@H]2c3c(c(O)c(O)c4oc5ccccc5c(=O)c34)[C@H](c3cc(O)c(O)c4oc5ccccc5c(=O)c34)[C@H]2C(C)(C)C1
- GI50 (786-0 renal): 1.99 µM
- TGI (786-0 renal): 6.24 µM
- GI50 (KM12 colon): 1.07 µM
- TGI (KM12 colon): 9.53 µM
- GI50 (DU-145 prostate): 1.01 µM
- TGI (DU-145 prostate): 14.4 µM
- GI50 (SN12C renal): 1.36 µM
- TGI (SN12C renal): 6.71 µM
- GI50 (OVCAR-5 ovarian): 3.18 µM
- TGI (OVCAR-5 ovarian): 14.7 µM
- GI50 (HCC-2998 colon): 1.87 µM
- TGI (HCC-2998 colon): 6.03 µM
- GI50 (HOP-92 NSCLC): 1.39 µM
- TGI (HOP-92 NSCLC): 5.43 µM
- GI50 (MALME-3M melanoma): 2.3 µM
- TGI (MALME-3M melanoma): 11.1 µM
- GI50 (UO-31 renal): 0.73 µM
- TGI (UO-31 renal): 2.18 µM
- GI50 (MCF7 breast): 0.772 µM
- TGI (MCF7 breast): 11.1 µM
- GI50 (SF-268 CNS): 1.14 µM
- TGI (SF-268 CNS): 16.4 µM
- GI50 (M14 melanoma): 1.36 µM
- TGI (M14 melanoma): 5.66 µM
- GI50 (U251 CNS): 0.728 µM
- TGI (U251 CNS): 14 µM
- GI50 (UACC-62 melanoma): 0.707 µM
- TGI (UACC-62 melanoma): 2.33 µM
- GI50 (HT29 colon): 0.86 µM
- TGI (HT29 colon): 13.8 µM
- GI50 (K-562 leukemia): 0.22 µM
- TGI (K-562 leukemia): > 100 µM
- GI50 (MDA-MB-231 breast): 2.9 µM
- TGI (MDA-MB-231 breast): 19.1 µM
- GI50 (RXF 393 renal): 0.42 µM
- TGI (RXF 393 renal): 2.52 µM
- GI50 (OVCAR-8 ovarian): 0.93 µM
- TGI (OVCAR-8 ovarian): 46.9 µM
- GI50 (SK-OV-3 ovarian): 2.5 µM
- TGI (SK-OV-3 ovarian): 14.2 µM
- GI50 (SK-MEL-2 melanoma): 2.24 µM
- TGI (SK-MEL-2 melanoma): 6.72 µM
- GI50 (EKVX NSCLC): 1.44 µM
- TGI (EKVX NSCLC): 12.8 µM
- GI50 (OVCAR-3 ovarian): 0.426 µM
- TGI (OVCAR-3 ovarian): 10.5 µM
- GI50 (A498 renal): 0.519 µM
- TGI (A498 renal): 3.38 µM
- GI50 (T-47D breast): 0.764 µM
- TGI (T-47D breast): 19.3 µM
- GI50 (SF-295 CNS): 0.443 µM
- TGI (SF-295 CNS): 2.28 µM
- GI50 (A549 NSCLC): 0.276 µM
- TGI (A549 NSCLC): 4.91 µM
- GI50 (NCI-H522 lung): 1.77 µM
- TGI (NCI-H522 lung): 5.57 µM
- GI50 (HOP-62 NSCLC): 0.978 µM
- TGI (HOP-62 NSCLC): 8.35 µM
- GI50 (NCI/ADR-RES ovarian): 3.07 µM
- TGI (NCI/ADR-RES ovarian): 16.3 µM
- GI50 (TK-10 renal): 2.19 µM
- TGI (TK-10 renal): 15.3 µM
- GI50 (HL-60(TB) leukemia): 3.22 µM
- TGI (HL-60(TB) leukemia): 10.8 µM
- GI50 (CCRF-CEM leukemia): 0.609 µM
- TGI (CCRF-CEM leukemia): > 100 µM
- GI50 (MOLT-4 leukemia): 0.802 µM
- TGI (MOLT-4 leukemia): 24.1 µM
- GI50 (MDA-MB-435): 0.839 µM
- TGI (MDA-MB-435): 4.42 µM
- GI50 (PC-3 prostate): 1.1 µM
- TGI (PC-3 prostate): 16.5 µM
- GI50 (CAKI-1 renal): 0.675 µM
- TGI (CAKI-1 renal): 8.34 µM
- GI50 (SK-MEL-5 melanoma): 1.17 µM
- TGI (SK-MEL-5 melanoma): 2.51 µM
- GI50 (HCT-15 colon): 0.909 µM
- TGI (HCT-15 colon): 12.9 µM
- GI50 (SNB-75 CNS): 0.637 µM
- TGI (SNB-75 CNS): 6.59 µM
- GI50 (SNB-19 CNS): 1.17 µM
- TGI (SNB-19 CNS): 14.1 µM
- GI50 (HCT-116 colon): 0.224 µM
- TGI (HCT-116 colon): 1.75 µM
- GI50 (SR leukemia): 0.384 µM
- TGI (SR leukemia): 34.4 µM
- GI50 (COLO 205 colon): 2.8 µM
- TGI (COLO 205 colon): 9.73 µM
- GI50 (HS 578T breast): 0.379 µM
- TGI (HS 578T breast): 9.89 µM
- GI50 (BT-549 breast): 1.92 µM
- TGI (BT-549 breast): 6.69 µM
- GI50 (LOX IMVI melanoma): 0.451 µM
- TGI (LOX IMVI melanoma): 1.76 µM
- GI50 (SW-620 colon): 0.802 µM
- TGI (SW-620 colon): 10.7 µM
- GI50 (SK-MEL-28 melanoma): 1.86 µM
- TGI (SK-MEL-28 melanoma): 13.3 µM
- GI50 (ACHN renal): 0.863 µM
- TGI (ACHN renal): 9.22 µM
- GI50 (NCI-H460 lung): 0.22 µM
- TGI (NCI-H460 lung): 1.83 µM
- GI50 (UACC-257 melanoma): 2.65 µM
- TGI (UACC-257 melanoma): 18.1 µM
- GI50 (OVCAR-4 ovarian): 0.786 µM
- TGI (OVCAR-4 ovarian): 20.2 µM
- GI50 (NCI-H23 lung): 0.518 µM
- TGI (NCI-H23 lung): 3.22 µM
- GI50 (IGROV1 ovarian): 1.05 µM
- TGI (IGROV1 ovarian): 8.09 µM
- GI50 (SF-539 CNS): 1.1 µM
- TGI (SF-539 CNS): 4.89 µM
